In article PMC3829888, “A Novel Quantitative Kinase Assay Using Bacterial Surface Display and Flow Cytometry” (PLoS ONE, 2013):
Blank lines part the entries; values can stand above or below the molecule they belong to. Residues, ends and D or L forms follow the SMILES beside them.

Tests used:
Abl kinase [1] = details: in words
Abl TK = biological target: T1, Abl TK (Homo sapiens, UniProt P00519); assay: BacKin assay, inhibition and substrate competition (surface-displayed abltide phosphorylation, flow cytometry); type: biochemical; details: for IC50: 0.5 U/mL Abl kinase, 30 min at 37°C, flow cytometry, biotin-anti-PY/SAPE, average of three independent experiments±SD
T1 construct: purchased Merck Millipore
T1 sequence (P00519 whole entry): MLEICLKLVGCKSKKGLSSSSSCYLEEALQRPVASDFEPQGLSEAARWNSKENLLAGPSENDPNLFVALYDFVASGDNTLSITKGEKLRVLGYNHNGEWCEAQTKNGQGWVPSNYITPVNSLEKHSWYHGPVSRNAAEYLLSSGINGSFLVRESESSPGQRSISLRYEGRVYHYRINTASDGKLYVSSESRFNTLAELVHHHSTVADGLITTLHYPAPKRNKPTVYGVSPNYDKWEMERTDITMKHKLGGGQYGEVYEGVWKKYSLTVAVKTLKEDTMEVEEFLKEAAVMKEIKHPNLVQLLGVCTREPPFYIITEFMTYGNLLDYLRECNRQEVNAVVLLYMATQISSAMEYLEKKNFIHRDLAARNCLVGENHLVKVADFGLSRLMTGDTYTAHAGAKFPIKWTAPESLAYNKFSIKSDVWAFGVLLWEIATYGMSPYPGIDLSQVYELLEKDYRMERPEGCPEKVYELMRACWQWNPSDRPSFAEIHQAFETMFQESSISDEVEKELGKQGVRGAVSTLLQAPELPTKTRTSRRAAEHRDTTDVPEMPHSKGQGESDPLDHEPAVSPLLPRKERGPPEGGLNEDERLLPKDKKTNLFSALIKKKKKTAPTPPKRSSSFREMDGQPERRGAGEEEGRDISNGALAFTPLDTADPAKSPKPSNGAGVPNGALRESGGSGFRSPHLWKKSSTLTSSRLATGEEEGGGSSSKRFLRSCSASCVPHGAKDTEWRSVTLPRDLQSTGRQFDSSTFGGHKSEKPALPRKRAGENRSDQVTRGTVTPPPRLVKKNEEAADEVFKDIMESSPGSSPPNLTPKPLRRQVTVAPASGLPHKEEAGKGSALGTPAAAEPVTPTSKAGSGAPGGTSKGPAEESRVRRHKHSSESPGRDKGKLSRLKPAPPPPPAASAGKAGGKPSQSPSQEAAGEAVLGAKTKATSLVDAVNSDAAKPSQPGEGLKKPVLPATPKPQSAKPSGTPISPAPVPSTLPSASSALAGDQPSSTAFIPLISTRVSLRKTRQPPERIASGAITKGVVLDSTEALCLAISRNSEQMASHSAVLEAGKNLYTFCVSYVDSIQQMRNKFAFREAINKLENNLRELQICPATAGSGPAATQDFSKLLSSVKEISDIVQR

Abl kinase [2] = assay: Validation of BacKin assay: fluorescence of kinase-treated displaying cells by flow cytometry; type: biochemical, Human; details: after 30 min incubation with Abl kinase; 585/42 nm
[3] = one U = 1 nmol of phosphate incorporated into 50 µM abltide per minute at 30°C, 100 µM ATP; ref Merck Millipore; cited from earlier work
Description: The kinase activity of Bcr-Abl TK is located in the Abl domain (Figure 1). […] The activity of Abl TK was first examined using LC-MS. The time-course for phosphorylation of 60 µM of soluble abltide was followed with 0.5 U/mL Abl TK in kinase buffer (50 mM Tris-HCl, 10 mM MgCl2, 0.1 mM EDTA, 2 mM dithiothreitol and 0.01% (v/v) Brij 35, NEBuffer, New England BioLa ...

Molecule: EAIFAAPYAKKK [[Y4F,F8Y], abltide analogue in which the Tyr4 and Phe8 residues are swapped; negative control]
phosphorylation by Abl kinase (Abl kinase [1]): is not phosphorylated by Abl kinase
inhibition of kinase activity / competition (Abl TK; in words, peptide concentrations ranging from 64 to 0.25 µM, 0.5 U/mL kinase, 30 min, analogue tested with 500 µM ATP, average of two replicates): did not inhibit kinase activity in the concentration range tested

Molecule: abltide-displaying cells: E. coli MC1061 displaying KKGEAIYAAPFA fused via spacer GGQSGQ to the N-terminus of the eCPX display scaffold
percentage of fluorescent cells (Abl kinase [2]): ~96%

Molecule: Abl TK: Human active Abl (121 kDa, 1067 U/mg, Merck Millipore)
specific activity [3]: 1067 U/mg

IC50 (Abl TK; 50 µM ATP): 21.5 ± 2.64 µM
IC50 (Abl TK; 500 µM ATP): 37.5 ± 3.95 µM
Molecule: CC[C@H](C)[C@H](NC(=O)[C@H](C)NC(=O)[C@@H](N)CCC(=O)O)C(=O)N[C@@H](Cc1ccc(O)cc1)C(=O)N[C@@H](C)C(=O)N[C@@H](C)C(=O)N1CCC[C@H]1C(=O)N[C@@H](Cc1ccccc1)C(=O)N[C@@H](C)C(=O)N[C@@H](CCCCN)C(=O)N[C@@H](CCCCN)C(=O)N[C@@H](CCCCN)C(=O)O [abltide] (H-EAIYAAPFAKKK-OH)
